Experimental data: the NIST ThermoML archive (doi:10.1021/je030165y)
± gives the expanded uncertainty stated by the source.

Experiment: refractive index (Na D-line) (dimensionless)
Settings: 298.15 K; 101.33 kPa; Liquid; Standard Abbe refractometry

| Structure (SMILES) | refractive index |
| --- | --- |
| CCCCCC [hexane] | 1.3722 ± 0.0007 |
| C1CCCCC1 [cyclohexane] | 1.4236 ± 0.0008 |
| COCCOC [1,2-dimethoxyethane] | 1.3783 ± 0.0008 |
| Cc1ccccc1 [toluene] | 1.4941 ± 0.0008 |
